Reference: the CheMixHub ionic liquid set
“And” between values parts separate entries of the source, which are not always exact repeats. Identical values can stand only once.

Experiment: xn = mol fraction of the nth substance listed

CCCC[N+](C)(CCCC)CCCC.[Cl-] + O
viscosity
Conditions | 293.15 K | 298.15 K | 303.15 K | 308.15 K | 313.15 K
100 kPa, x1 = 0.0003603 | 1.01 mPa·s | 0.904 mPa·s | 0.809 mPa·s | 0.726 mPa·s | 0.661 mPa·s
100 kPa, x1 = 0.0007023 | 1.024 mPa·s | 0.914 mPa·s | 0.815 mPa·s | 0.735 mPa·s | 0.671 mPa·s
100 kPa, x1 = 0.001062 | 1.035 mPa·s | 0.93 mPa·s | 0.829 mPa·s | 0.744 mPa·s | 0.686 mPa·s
100 kPa, x1 = 0.001422 | 1.045 mPa·s | 0.941 mPa·s | 0.839 mPa·s | 0.756 mPa·s | 0.694 mPa·s
101.3 kPa, x1 = 0.0003423 | 1.011 mPa·s | 0.904 mPa·s | 0.806 mPa·s | 0.729 mPa·s | 0.662 mPa·s
101.3 kPa, x1 = 0.0007203 | 1.023 mPa·s and 0.98 mPa·s and 1.04 mPa·s | 0.914 mPa·s and 0.88 mPa·s and 0.93 mPa·s | 0.812 mPa·s and 0.74 mPa·s and 0.83 mPa·s | 0.737 mPa·s and 0.65 mPa·s and 0.75 mPa·s | 0.672 mPa·s and 0.67 mPa·s
101.3 kPa, x1 = 0.001062 | 1.036 mPa·s | 0.931 mPa·s | 0.826 mPa·s | 0.747 mPa·s | 0.686 mPa·s
101.3 kPa, x1 = 0.00144 | 1.044 mPa·s and 0.97 mPa·s and 1.08 mPa·s | 0.942 mPa·s and 0.89 mPa·s and 0.96 mPa·s | 0.84 mPa·s and 0.77 mPa·s and 0.86 mPa·s | 0.759 mPa·s and 0.77 mPa·s | 0.695 mPa·s and 0.7 mPa·s

CCCC[n+]1ccn(C)c1.N[C@@H](CO)C(=O)[O-] + O
100 kPa
Conditions | electrical conductivity [S/m] | viscosity [mPa·s]
298.15 K, x1 = 0.8281 | 0.00761 | –
298.15 K, x1 = 0.8435 | 0.00711 | –
298.15 K, x1 = 0.8592 | 0.00675 | –
298.15 K, x1 = 0.8757 | 0.00646 | –
298.15 K, x1 = 0.8914 | 0.00609 | –
298.15 K, x1 = 0.8939 | – | 5180
298.15 K, x1 = 0.9163 | – | 5221
303.15 K, x1 = 0.8592 | 0.0107 | –
303.15 K, x1 = 0.8757 | 0.0101 | –
303.15 K, x1 = 0.8914 | 0.00973 | –
303.15 K, x1 = 0.8939 | – | 3031
308.15 K, x1 = 0.8757 | 0.0159 | –
313.15 K, x1 = 0.8939 | – | 1179
313.15 K, x1 = 0.939 | – | 1290
328.15 K, x1 = 0.8435 | 0.078 | –
328.15 K, x1 = 0.8521 | – | 338
328.15 K, x1 = 0.8592 | 0.0738 | –
328.15 K, x1 = 0.8939 | – | 367
328.15 K, x1 = 0.939 | – | 422
333.15 K, x1 = 0.8281 | 0.11 | –
333.15 K, x1 = 0.8592 | 0.1 | –
338.15 K, x1 = 0.8521 | – | 179.9
338.15 K, x1 = 0.8592 | 0.132 | –

CCCC[n+]1ccn(C)c1.N#C[S-] + CCCCCO
101 kPa
Conditions | viscosity [mPa·s]
308.15 K, x2 = 0.0193 | 31.1
308.15 K, x2 = 0.1443 | 23.4
318.15 K, x2 = 0.5557 | 7.31
328.15 K, x2 = 0.7302 | 3.71
338.15 K, x2 = 0 | 12.7
338.15 K, x2 = 0.3843 | 6.75
338.15 K, x2 = 0.616 | 4.13
348.15 K, x2 = 0.2751 | 6.6
348.15 K, x2 = 0.3843 | 5.49
348.15 K, x2 = 0.7914 | 2.17
348.15 K, x2 = 0.9135 | 1.5

CC[NH+](CC)CC.O=S(=O)([O-])O + CS(C)=O
101 kPa
Conditions | viscosity [mPa·s]
298.15 K, x1 = 0.011 | 3.84
298.15 K, x2 = 0.0244 | 228
298.15 K, x2 = 0.199 | 178
298.15 K, x2 = 0.9539 | 9.02
303.15 K, x1 = 0.011 | 3.01
303.15 K, x2 = 0.653 | 40.58
308.15 K, x2 = 0.2473 | 97.6
308.15 K, x2 = 0.4004 | 74.6

CCCCCCCCCCCn1cc[n+](C)c1.O=S(=O)([N-]S(=O)(=O)C(F)(F)F)C(F)(F)F + O
Conditions | viscosity [mPa·s]
338.15 K, 100 kPa, x2 = 0.1567 | 20.54

CCCC[n+]1ccn(C)c1.N#C[N-]C#N + O=S(=O)([O-])C(F)(F)F.[Li+]
101 kPa, x1 = 1
Conditions | electrical conductivity [S/m]
288.15 K | 0.596
298.15 K | 0.925
333.15 K | 2.77

OCC(F)(F)F + CC[n+]1ccn(C)c1.N#C[N-]C#N
100 kPa, x2 = 0
Conditions | viscosity [mPa·s]
298.15 K | 1.77
308.15 K | 1.38

C=CC[n+]1ccn(C)c1.[Cl-] + O
101 kPa
Conditions | viscosity [mPa·s]
298.15 K, x2 = 0.193 | 697
298.15 K, x2 = 0.267 | 427
303.15 K, x2 = 0.335 | 184
313.15 K, x2 = 0.045 | 473
313.15 K, x2 = 0.126 | 312
323.15 K, x2 = 0.335 | 61
333.15 K, x2 = 0.091 | 108
353.15 K, x2 = 0.126 | 36.9
353.15 K, x2 = 0.267 | 24.3
363.15 K, x2 = 0.091 | 28.6
363.15 K, x2 = 0.126 | 25.6
373.15 K, x2 = 0.126 | 18.58
373.15 K, x2 = 0.193 | 15.98
373.15 K, x2 = 0.267 | 13.37

CCCO + CC[n+]1ccn(C)c1.COS(=O)(=O)[O-]
101 kPa, x2 = 0
Conditions | viscosity [mPa·s]
283.15 K | 2.78
293.15 K | 2.18
313.15 K | 1.36
323.15 K | 1.11

CC[N+](CC)(CC)CC.[Cl-] + CC(=O)CCC(=O)O
101.3 kPa, x1 = 0.3333
Conditions | viscosity [mPa·s]
298.15 K | 140
308.15 K | 83.8
318.15 K | 52.7
328.15 K | 33
338.15 K | 20.23

CCCC[n+]1ccn(C)c1.N#C[N-]C#N + CC(=O)[O-].[K+] + O
viscosity [mPa·s], 101 kPa
Conditions | 298.15 K | 308.15 K | 318.15 K | 323.15 K
x2 = 0.1831, x3 = 0.8019 | 8.2 | 6 | – | –
x2 = 0.1943, x3 = 0.7933 | 10 | 7.2 | 5.4 | 4.815

OC[C@H]1O[C@H](O[C@H]2[C@H](O)[C@@H](O)C(O)O[C@@H]2CO)[C@H](O)[C@@H](O)[C@@H]1O (some centres undefined) + O + CCCC[n+]1ccn(C)c1.[Cl-]
298.15 K, 101.3 kPa
Conditions | electrical conductivity
x1 = 0.003591, x3 = 5.29e-06 | 0.00303 S/m
x1 = 0.003591, x3 = 8.39e-06 | 0.00457 S/m
x1 = 0.003591, x3 = 1.182e-05 | 0.00625 S/m
x1 = 0.003591, x3 = 1.516e-05 | 0.00787 S/m
x1 = 0.003591, x3 = 1.84e-05 | 0.00941 S/m
x1 = 0.003591, x3 = 2.179e-05 | 0.011 S/m
x1 = 0.003591, x3 = 2.475e-05 | 0.01239 S/m
x1 = 0.003591, x3 = 2.776e-05 | 0.0138 S/m
x1 = 0.003591, x3 = 3.087e-05 | 0.01519 S/m
x1 = 0.003591, x3 = 3.39e-05 | 0.0165 S/m
x1 = 0.003591, x3 = 3.679e-05 | 0.0179 S/m
x1 = 0.007156, x3 = 7.85e-06 | 0.00369 S/m
x1 = 0.007156, x3 = 1.182e-05 | 0.00532 S/m
x1 = 0.007156, x3 = 1.573e-05 | 0.00691 S/m
x1 = 0.007156, x3 = 1.984e-05 | 0.00855 S/m
x1 = 0.007156, x3 = 2.38e-05 | 0.01011 S/m
x1 = 0.007156, x3 = 2.785e-05 | 0.0117 S/m
x1 = 0.007156, x3 = 3.214e-05 | 0.01336 S/m
x1 = 0.007156, x3 = 3.627e-05 | 0.0149 S/m
x1 = 0.007156, x3 = 4.07e-05 | 0.0166 S/m
x1 = 0.007156, x3 = 4.483e-05 | 0.01815 S/m
x1 = 0.0107, x3 = 7.55e-06 | 0.0031 S/m
x1 = 0.0107, x3 = 1.145e-05 | 0.00447 S/m
x1 = 0.0107, x3 = 1.56e-05 | 0.0059 S/m
x1 = 0.0107, x3 = 1.953e-05 | 0.00725 S/m
x1 = 0.0107, x3 = 2.385e-05 | 0.0087 S/m
x1 = 0.0107, x3 = 2.86e-05 | 0.01028 S/m
x1 = 0.0107, x3 = 3.328e-05 | 0.0118 S/m
x1 = 0.0107, x3 = 3.79e-05 | 0.01332 S/m
x1 = 0.0107, x3 = 4.278e-05 | 0.0149 S/m
x1 = 0.0107, x3 = 4.74e-05 | 0.01635 S/m
x1 = 0.0107, x3 = 5.2e-05 | 0.0178 S/m
x1 = 0.01421, x3 = 1.044e-05 | 0.00364 S/m
x1 = 0.01421, x3 = 1.582e-05 | 0.0052 S/m
x1 = 0.01421, x3 = 2.09e-05 | 0.00666 S/m
x1 = 0.01421, x3 = 2.625e-05 | 0.00817 S/m
x1 = 0.01421, x3 = 3.215e-05 | 0.00982 S/m
x1 = 0.01421, x3 = 3.779e-05 | 0.01136 S/m
x1 = 0.01421, x3 = 4.365e-05 | 0.013 S/m
x1 = 0.01421, x3 = 4.958e-05 | 0.0146 S/m
x1 = 0.01421, x3 = 5.535e-05 | 0.01611 S/m
x1 = 0.0177, x3 = 7.16e-06 | 0.00235 S/m
x1 = 0.0177, x3 = 1.43e-05 | 0.00413 S/m
x1 = 0.0177, x3 = 2.14e-05 | 0.00587 S/m
x1 = 0.0177, x3 = 2.851e-05 | 0.0076 S/m
x1 = 0.0177, x3 = 3.535e-05 | 0.00922 S/m
x1 = 0.0177, x3 = 4.182e-05 | 0.0107 S/m
x1 = 0.0177, x3 = 4.861e-05 | 0.01232 S/m
x1 = 0.0177, x3 = 5.526e-05 | 0.0138 S/m
x1 = 0.0177, x3 = 6.177e-05 | 0.01534 S/m
x1 = 0.0177, x3 = 6.769e-05 | 0.0167 S/m
x1 = 0.0177, x3 = 7.386e-05 | 0.01804 S/m
x1 = 0.02116, x2 = 0.9788 | 0.0134 S/m and 0.0146 S/m and 0.0157 S/m

CCCC[n+]1ccn(C)c1.N#C[S-] + c1ccsc1
viscosity [mPa·s], 100 kPa
Conditions | x2 = 0 | x2 = 0.103 | x2 = 0.143 | x2 = 0.246 | x2 = 0.61 | x2 = 0.701
298.15 K | 57.4 | 47.2 | 42.9 | 32 | 13.36 | 9.93
308.15 K | 37.4 | 31.4 | 28.7 | 22 | 9.94 | 7.57
318.15 K | 25.8 | 22.1 | 20.4 | 15.96 | 7.67 | 5.96
328.15 K | 18.7 | 16.22 | 15.07 | 12.02 | 6.1 | 4.83
